Our source for the IC50 values is patent publication US20260022142A1, “MACROCYCLIC IMMUNOMODULATORS” (Bristol-Myers Squibb Company, priority 2022, published 2026).

Numbered stars: 1 amine (or outer) side, 2 acyl side, 3 side chain; on linkers, the order of the positions; unused ones are H or OH. Bridge positions count the residues as written; N and C are the ends. Square brackets hold non-standard residues; d marks the D form. Peptide text beside a SMILES is read from it. * marks the point of attachment. ξ: configuration not given here. Trp(βS-Me) = C[C@@H](c1c[nH]c2ccccc12)[C@H](N)C(=O)O; Phe(4-COOH) = N[C@@H](Cc1ccc(C(=O)O)cc1)C(=O)O; Bip = N[C@@H](Cc1ccc(-c2ccccc2)cc1)C(=O)O; Phe(3-Me) = Cc1cccc(C[C@H](N)C(=O)O)c1; NH(CH2)12COOH = O=C(O)CCCCCCCCCCCCN*; X19 = O=C([C@@H]1CC(O)CN1[*:1])[*:2]; Val(3-OH) = CC(C)(O)[C@H](N)C(=O)O; hArg = N=C(N)NCCCC[C@H](N)C(=O)O; Cha = N[C@@H](CC1CCCCC1)C(=O)O; Cit = NC(=O)NCCC[C@H](N)C(=O)O; Thr(3ξ) = CC(O)[C@H](N)C(=O)O; Carboxymethyl = O=C(O)C*; Orn = NCCC[C@H](N)C(=O)O; Aun = NCCCCCCCCCCC(=O)O; Dab = NCC[C@H](N)C(=O)O; Nva = CCC[C@H](N)C(=O)O; Dap = NC[C@H](N)C(=O)O; AEEA = NCCOCCOCC(=O)O; Ac3c = NC1(C(=O)O)CC1; Piv = CC(C)(C)C(=O)*

This assay deals with T1, PD-1/PD-L1 interaction (PE-labeled human PD-L1-Ig binding to Jurkat cell line over-expressing human PD-1) (Homo sapiens, UniProt Q15116).
T1 construct: expressed in transfected cells; host or cells: Jurkat
T1 sequence (Q15116 25-288): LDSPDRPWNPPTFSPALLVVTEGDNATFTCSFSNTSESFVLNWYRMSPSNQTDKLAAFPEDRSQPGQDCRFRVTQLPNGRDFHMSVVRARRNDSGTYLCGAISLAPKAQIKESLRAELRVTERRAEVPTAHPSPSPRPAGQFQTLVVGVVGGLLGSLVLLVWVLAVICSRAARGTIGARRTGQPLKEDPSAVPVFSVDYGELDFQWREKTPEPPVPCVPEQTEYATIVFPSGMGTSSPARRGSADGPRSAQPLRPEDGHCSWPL
Nature of the assay: Jurkat-PD-1 Cell Binding High-Content Screening Assay (CBA). The class given is cell-based. As to conditions: Jurkat cell line over-expressing human PD-1; PE-labeled PD-L1-Ig 20 nM final; read-out: Jurkat hPD1-PDL1 IC50. The method in brief: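 Jurkat cells stably over-expressing human PD-1 were seeded in DMEM with 10% fetal calf serum and pre-incubated with compound for 2 h at 37° C. PE-labeled human PD-L1-Ig was then added at 20 nM final for 1 hour, after which cells were fixed with paraformaldehyde, Hoechst-stained and imaged by high-content microscopy.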
Usually IC50 stands for the midpoint of a concentration-inhibition curve. Turning to `CC(C)C[C@H]1NC(=O)[C@H](CCCN)NC(=O)[C@H](Cc2ccc(O)cc2)NC(=O)[C@H](Cc2ccc(-c3ccccc3)cc2)NC(=O)[C@H](C(C)C)NC(=O)[C@H]([C@@H](C)c2c[nH]c3ccccc23)NC(=O)[C@H](CC(=O)O)NC(=O)[C@H](Cc2ccc(OCC(=O)O)cc2)NC(=O)[C@H](CCCNC(=N)N)NC(=O)CSC[C@@H](C(=O)NC2(C(=O)NCCCCCCCCCCC(=O)O)CC2)NC(=O)[C@H]([C@@H](C)O)NC(=O)[C@H](C(C)C)NC(=O)[C@H](CC2CCCCC2)NC(=O)[C@H](CCN)NC1=O` [Compound 2133] ({CH2CO}-RY(Carboxymethyl)D[Trp(βS-Me)]V[Bip]Y[Orn][dL][Dab][Cha]VTC[Ac3c][Aun]-OH; thioether N-14), the 50% inhibitory concentration (IC50) came to 0.0588 µM. Under `Cc1cccc(C[C@@H]2NC(=O)[C@H](CC(=O)O)NC(=O)[C@H](Cc3ccc(OCC(=O)O)cc3)NC(=O)[C@H](CC(N)=O)NC(=O)CSC[C@@H](C(=O)N[C@@H](CCN)C(=O)NCCCCCCCCCCC(=O)O)NC(=O)[C@H](CO)NC(=O)[C@H](C(C)(C)O)NC(=O)[C@H](CC3CCCCC3)NC(=O)[C@H](CCN)NC(=O)[C@@H](CC(C)C)NC(=O)[C@H](CCCN)NC(=O)[C@H](Cc3ccc(OCC(=O)O)cc3)NC(=O)[C@H](Cc3ccc(-c4ccccc4)cc3)NC(=O)[C@H](Cc3ccc(OCC(=O)O)cc3)NC2=O)c1` [Compound 2220] ({CH2CO}-NY(Carboxymethyl)D[Phe(3-Me)]Y(Carboxymethyl)[Bip]Y(Carboxymethyl)[Orn][dL][Dab][Cha][Val(3-OH)]SC[Dab][Aun]-OH; thioether N-14) stands 0.0123 µM; under `Cc1cccc(C[C@@H]2NC(=O)[C@H](CC(=O)O)NC(=O)[C@H](Cc3ccc(OCC(=O)O)cc3)NC(=O)[C@H](CCCNC(=N)N)NC(=O)CSC[C@@H](C(=O)N[C@H](CC(N)=O)C(=O)NCCCCCCCCCCC(=O)O)NC(=O)[C@H](C(C)O)NC(=O)[C@H](C(C)C)NC(=O)[C@H](CC3CCCCC3)NC(=O)[C@H](CCN)NC(=O)[C@@H](CC(C)C)NC(=O)[C@H](CCCNC(=N)N)NC(=O)[C@H](CCCCNC(=O)C(C)(C)C)NC(=O)[C@H](Cc3ccc(-c4ccccc4)cc3)NC(=O)[C@H](Cc3ccc(O)cc3)NC2=O)c1` (stereo partly drawn) [Compound 3542] ({CH2CO}-RY(Carboxymethyl)D[Phe(3-Me)]Y[Bip]K(Piv)R[dL][Dab][Cha]V[Thr(3ξ)]C[dN][Aun]-OH; thioether N-14), 0.0382 µM; under `Cc1cccc(C[C@@H]2NC(=O)[C@H](CC(=O)O)NC(=O)[C@H](Cc3ccc(OCC(=O)O)cc3)NC(=O)[C@H](CN)NC(=O)CSC[C@@H](C(=O)N[C@@H](CC(=O)O)C(=O)NCCCCCCCCCCC(=O)O)NC(=O)[C@H]([C@@H](C)O)NC(=O)[C@H](C(C)C)NC(=O)[C@H](CC3CCCCC3)NC(=O)[C@H](Cc3cnc[nH]3)NC(=O)[C@@H](CC(C)C)NC(=O)[C@H](CCCN)NC(=O)[C@H](C(C)C)NC(=O)[C@H](Cc3ccc(-c4ccccc4)cc3)NC(=O)[C@H](C(C)C)NC2=O)c1` [Compound 1107] ({CH2CO}-[Dap]Y(Carboxymethyl)D[Phe(3-Me)]V[Bip]V[Orn][dL]H[Cha]VTCD[Aun]-OH; thioether N-14), 0.0358 µM. Under `Cc1cccc(C[C@@H]2NC(=O)[C@H](CC(=O)O)NC(=O)[C@H](Cc3ccc(OCC(=O)O)cc3)NC(=O)[C@H](CCN)NC(=O)CSC[C@@H](C(=O)N[C@@H](CCN)C(=O)NCCOCCOCC(=O)NCCCCCCCCCCC(=O)O)NC(=O)[C@H](Cc3cnc[nH]3)NC(=O)[C@H](C(C)O)NC(=O)[C@H](CC3CCCCC3)NC(=O)[C@H](CCN)NC(=O)[C@@H](CC(C)C)NC(=O)[C@H](CCCN)NC(=O)[C@H](Cc3ccc(OCC(=O)O)cc3)NC(=O)[C@H](Cc3ccc(-c4ccccc4)cc3)NC(=O)[C@H](Cc3ccc(OCC(=O)O)cc3)NC2=O)c1` (stereo partly drawn) [Compound 3805] ({CH2CO}-[Dab]Y(Carboxymethyl)D[Phe(3-Me)]Y(Carboxymethyl)[Bip]Y(Carboxymethyl)[Orn][dL][Dab][Cha][Thr(3ξ)]HC[Dab][AEEA][Aun]-OH; thioether N-14) stands 0.0012 µM; under `Cc1cccc(C[C@@H]2NC(=O)[C@H](CC(=O)O)NC(=O)[C@H](Cc3ccc(OCC(=O)O)cc3)NC(=O)[C@H](CCCNC(=N)N)NC(=O)CSC[C@@H](C(=O)N[C@@H](CCCCN)C(=O)NCCCCCCCCCCC(=O)O)NC(=O)[C@H](C(C)O)NC(=O)[C@H](C(C)C)NC(=O)[C@H](CC3CCCCC3)NC(=O)[C@H](CCN)NC(=O)[C@@H](CC(C)C)NC(=O)[C@H](CCCN)NC(=O)[C@H](C(C)C)NC(=O)[C@H](Cc3ccc(-c4ccccc4)cc3)NC(=O)[C@H](C(C)C)NC2=O)c1` (stereo partly drawn) [Compound 3475] ({CH2CO}-RY(Carboxymethyl)D[Phe(3-Me)]V[Bip]V[Orn][dL][Dab][Cha]V[Thr(3ξ)]CK[Aun]-OH; thioether N-14), 0.0257 µM. As to `CC(C)C[C@H]1NC(=O)[C@H](CCCN)NC(=O)[C@H](Cc2ccc(O)cc2)NC(=O)[C@H](Cc2ccc(-c3ccccc3)cc2)NC(=O)[C@H](C(C)C)NC(=O)[C@H](Cc2c[nH]c3ccccc23)NC(=O)[C@H](CC(=O)O)NC(=O)[C@H](Cc2ccc(OCC(=O)O)cc2)NC(=O)[C@H](C(C)(C)O)NC(=O)CSC[C@@H](C(=O)N[C@@H](CCN)C(=O)NCCCCCCCCCCC(=O)O)NC(=O)[C@H](C(C)O)NC(=O)[C@H](C(C)C)NC(=O)[C@H](CC2CCCCC2)NC(=O)[C@H](CCN)NC1=O` (stereo partly drawn) [Compound 3414] ({CH2CO}-[Val(3-OH)]Y(Carboxymethyl)DWV[Bip]Y[Orn][dL][Dab][Cha]V[Thr(3ξ)]C[Dab][Aun]-OH; thioether N-14), the half-inhibitory concentration (IC50) was determined as 0.0737 µM.

On to `Cc1cccc(C[C@@H]2NC(=O)[C@H](CC(=O)O)NC(=O)[C@H](Cc3ccc(OCC(=O)O)cc3)NC(=O)[C@H](C(C)O)NC(=O)CSC[C@@H](C(=O)N[C@H](CC(N)=O)C(=O)NCCCCCCCCCCC(=O)O)NC(=O)[C@H](C(C)O)NC(=O)[C@H](C(C)C)NC(=O)[C@H](CC3CCCCC3)NC(=O)[C@H](CCN)NC(=O)[C@@H](CC(C)C)NC(=O)[C@H](CCCN)NC(=O)[C@H](CCC(N)=O)NC(=O)[C@H](Cc3ccc(-c4ccccc4)cc3)NC(=O)[C@H](C(C)C)NC2=O)c1` (stereo partly drawn) [Compound 3430] ({CH2CO}-[Thr(3ξ)]Y(Carboxymethyl)D[Phe(3-Me)]V[Bip]Q[Orn][dL][Dab][Cha]V[Thr(3ξ)]C[dN][Aun]-OH; thioether N-14), for which the IC50 was 0.0076 µM.

As to `CC(C)C[C@H]1NC(=O)[C@H](CCCN)NC(=O)[C@H](Cc2ccc(O)cc2)NC(=O)[C@H](Cc2ccc(-c3ccccc3)cc2)NC(=O)[C@H](C(C)C)NC(=O)[C@H](Cc2c[nH]c3ccccc23)NC(=O)[C@H](CC(=O)O)NC(=O)[C@H](Cc2ccc(OCC(=O)O)cc2)NC(=O)[C@H](CCCCNC(=N)N)NC(=O)CSC[C@@H](C(=O)N[C@@H](CCN)C(=O)NCCCCCCCCCCC(=O)O)NC(=O)[C@H](CCC(=O)O)NC(=O)[C@H](C(C)C)NC(=O)[C@H](CC2CCCCC2)NC(=O)[C@H](CCN)NC1=O` [Compound 3395] ({CH2CO}-[hArg]Y(Carboxymethyl)DWV[Bip]Y[Orn][dL][Dab][Cha]VEC[Dab][Aun]-OH; thioether N-14), the half-inhibitory concentration (IC50) was determined as 0.01 µM.

Regarding `CCC[C@@H]1NC(=O)CSC[C@@H](C(=O)N[C@@H](CCN)C(=O)NCCOCCOCC(=O)NCCOCCOCC(=O)NCCCCCCCCCCCCC(=O)O)NC(=O)[C@H](CO)NC(=O)[C@H](C(C)(C)O)NC(=O)[C@H](CC2CCCCC2)NC(=O)[C@H](CCN)NC(=O)[C@@H](CC(C)C)NC(=O)[C@H](CCCN)NC(=O)[C@H](Cc2ccc(C(=O)O)cc2)NC(=O)[C@H](Cc2ccc(-c3ccccc3)cc2)NC(=O)[C@H](Cc2ccc(C(=O)O)cc2)NC(=O)[C@H](Cc2cccc(C)c2)NC(=O)[C@H](CC(=O)O)NC(=O)[C@H](Cc2ccc(OCC(=O)O)cc2)NC1=O` [Compound 2883] ({CH2CO}-[Nva]Y(Carboxymethyl)D[Phe(3-Me)][Phe(4-COOH)][Bip][Phe(4-COOH)][Orn][dL][Dab][Cha][Val(3-OH)]SC[Dab][AEEA][AEEA]-{NH(CH2)12COOH}; thioether N-14), the half-maximal inhibitory concentration (IC50) was 0.0049 µM. Under `CC(=O)NCCCC[C@@H]1NC(=O)[C@H](C(C)C)NC(=O)[C@H](CC2CCCCC2)NC(=O)[C@H](CCN)NC(=O)[C@@H](CC(C)C)NC(=O)[C@H](CCN)NC(=O)[C@H](C(C)C)NC(=O)[C@H](Cc2ccc(-c3ccccc3)cc2)NC(=O)[C@H](C(C)C)NC(=O)[C@H](Cc2cccc(C)c2)NC(=O)[C@H](CC(=O)O)NC(=O)[C@H](Cc2ccc(OCC(=O)O)cc2)NC(=O)[C@H](C(C)O)NC(=O)CSC[C@@H](C(=O)NCCOCCOCC(=O)NCCCCCCCCCCC(=O)O)NC1=O` (stereo partly drawn) [Compound 3443] ({CH2CO}-[Thr(3ξ)]Y(Carboxymethyl)D[Phe(3-Me)]V[Bip]V[Dab][dL][Dab][Cha]VK(Ac)C[AEEA][Aun]-OH; thioether N-14) stands 0.012 µM; under `CC(C)C[C@H]1NC(=O)[C@H](CCCN)NC(=O)[C@H](C(C)C)NC(=O)[C@H](Cc2ccc(-c3ccccc3)cc2)NC(=O)[C@H](C(C)C)NC(=O)[C@H](Cc2c[nH]c3ccccc23)NC(=O)[C@H](CC(=O)O)NC(=O)[C@H](Cc2c[nH]cn2)NC(=O)[C@H](CCCCNC(=N)N)NC(=O)CSC[C@@H](C(=O)N[C@@H](CCN)C(=O)NCCCCCCCCCCC(=O)O)NC(=O)[C@@H]2CC(O)CN2C(=O)[C@H](C(C)C)NC(=O)[C@H](CC2CCCCC2)NC(=O)[C@H](CCN)NC1=O` (stereo partly drawn) [Compound 3274] ({CH2CO}-[hArg]HDWV[Bip]V[Orn][dL][Dab][Cha]V[X19]C[Dab][Aun]-OH; thioether N-14), 0.411 µM; under `Cc1cccc(C[C@@H]2NC(=O)[C@H](CC(=O)O)NC(=O)[C@H](Cc3ccc(OCC(=O)O)cc3)NC(=O)[C@H](CN)NC(=O)CSC[C@@H](C(=O)N[C@@H](CCCCN)C(=O)NCCOCCOCC(=O)NCCCCCCCCCCC(=O)O)NC(=O)[C@H](CN)NC(=O)[C@H](C(C)C)NC(=O)[C@H](CC3CCCCC3)NC(=O)[C@H](CCN)NC(=O)[C@@H](CC(C)C)NC(=O)[C@H](CCCN)NC(=O)[C@H](CCCNC(N)=O)NC(=O)[C@H](Cc3ccc(-c4ccccc4)cc3)NC(=O)[C@H](C(C)C)NC2=O)c1` [Compound 2649] ({CH2CO}-[Dap]Y(Carboxymethyl)D[Phe(3-Me)]V[Bip][Cit][Orn][dL][Dab][Cha]V[Dap]CK[AEEA][Aun]-OH; thioether N-14), 0.0111 µM.
